# Source: patent publication US8614236B2 (University of Washington, priority 2006, dated 2013)
# “Also recorded” adds a separate entry of the source.
# Assays:
# [1] = test system: Beagle dogs; assay: Dog study: pulmonary and systemic hemodynamics, hypoxic pulmonary vasoconstriction; type: in vivo; conditions: for MPAP and PVR during hypoxia (words): iv bolus + continuous infusion (AZ, benzolamide 2 mg/kg + 2 mg/kg/h; ethoxzolamide 1 mg/kg + 1 mg/kg/h)
# Method: A total of 30 experiments were performed on six female Beagle dogs (body wt 14.3±0.3 kg). The dogs were kept under highly standardized conditions and received a standardized diet five days before the experiments. The preparation and catheterization of the conscious dog were performed according to former experiments as in Höhne C., et al., J Appl Physiol (2004), which is hereby incorporated by reference in its entirety. To permit spontaneous breathing through a low resistance circuit, a face mask was attached, which enclosed the dog's snout in a leak proof fashion. This custom made mask is equipped with a 2.5 cm ID connector to connect it to a ventilator set to CPAP mode (3 4 cmH20) (Servo900C; Siemens-Elema, Erlangen/Germany).
# Six dogs were studied in five different protocols in randomized order:
# 4) Benzolamide intravenously: Bolus (2 mg/kg), followed by a continuous infusion of 2 mg·kg^−1·h^−1, a dosage which inhibits only renal and vascular endothelial extracellular CA, without affecting red cell CA as in Travis D. M., et al. J Pharmacol Exp Ther (1964), which is hereby incorporated by reference in its entirety. 5) Ethoxzolamide (Sigma-Aldrich, Steinheim/Germany) intravenously: Bolus ethoxzolamide (1 mg/kg), followed by a continuous infusion of 1 mg·kg^−1·h^−1.
# In control experiments, the dogs breathed room air (21% O2, 79% N2; normoxia) for one hour, followed by breathing a gas mixture containing 10% O2 and 90% N2 for two hours (hypoxia). The time course was the same for the CA inhibitor experiments, but F1O2 was reduced to 0.09 during the hypoxia period to match the arterial and alveolar PO2 of the control dogs, which otherwise would have been higher on 10% O2 as a result of the known ventilatory stimulant effect of all CA inhibitors. See Höhne C., et al., J Appl Physiol 97:515-521 (2004), which is hereby incorporated by reference in its entirety. The hemodynamic measurements (arterial blood pressure, heart rate, central venous pressure, pulmonary artery pressure, pulmonary capillary wedge pressure), minute ventilation, renal function data, time points for blood samples for blood gases, actual bicarbonate, base excess, plasma electrolytes and hormones, measurements of plasma and urinary values were according to former studies. See Höhne C., et al., J Appl Physiol 90:1842-1848 (2001), which is hereby incorporated by reference in its entirety.
# Values are given as means±SEM (n=6). For intra-group comparisons a general linear model of analysis of variance (GLM-ANOVA) for repeated measures was applied (NCSS97/PASS 2000, Saugus/MA, USA). Post-hoc testing of means was performed with Student's t-test. Level of significance for error of first order was adjusted according to Holm's procedure. Statistical significance was assumed at p<0.05.
# [2] = test system: Beagle dogs; assay: Dog study: arterial blood gases, ventilation and acid-base status in normoxia and hypoxia; type: in vivo; conditions: po 5 mg/kg 12 and 1 hr before; hypoxia 3rd h
# [3] = test system: Beagle dogs; conditions: iv 10 mg·kg^−1·h^−1; Höhne 2004; cited from earlier work
# [4] = iv bolus + continuous infusion, hypoxia 2nd h
# [5] = iv bolus + continuous infusion, hypoxia 3rd h
# [6] = iv bolus + continuous infusion, normoxia 1st h
# [7] = po 5 mg/kg 12 and 1 hr before, hypoxia 2nd h
# [8] = po 5 mg/kg 12 and 1 hr before, hypoxia 3rd h
# [9] = po 5 mg/kg 12 and 1 hr before, normoxia 1st h
structure (smiles),measurement,setting,value
"CC(=O)Nc1nnc(S(N)(=O)=O)s1 [AZ, acetazolamide]",MPAP and PVR during hypoxia (words),[1],did not change
same,MPAP and PVR during hypoxia (words),[1]; listed as acetazolamide,still inhibited
same,"CO, cardiac output",[1]; [4],2.6 ± 0.2 L/min
same,"CVP, central venous pressure",[1]; [4],2.6 ± 0.6 cmH2O
same,"HR, heart rate",[1]; [4],92 ± 9 beats/min
same,"MAP, mean arterial pressure",[1]; [4],109 ± 7 mmHg
same,"MPAP, mean pulmonary arterial pressure",[1]; [4],15 ± 1 mmHg
same,"PCWP, pulmonary capillary wedge pressure",[1]; [4],3.5 ± 0.3 cm H2O
same,"SVR, systemic vascular resistance",[1]; [4],3348 ± 260 dyn · s^1 · cm^−5
same,"CO, cardiac output",[1]; [5],2.4 ± 0.1 L/min
same,"CVP, central venous pressure",[1]; [5],1.8 ± 0.5 cmH2O
same,"HR, heart rate",[1]; [5],98 ± 8 beats/min
same,"MAP, mean arterial pressure",[1]; [5],111 ± 6 mmHg
same,"MPAP, mean pulmonary arterial pressure",[1]; [5],14 ± 1 mmHg
same,"PCWP, pulmonary capillary wedge pressure",[1]; [5],3.3 ± 0.2 cm H2O
same,"SVR, systemic vascular resistance",[1]; [5],3675 ± 241 dyn · s^1 · cm^−5
same,"CO, cardiac output",[1]; [6],2.4 ± 0.2 L/min
same,"CVP, central venous pressure",[1]; [6],1.8 ± 0.3 cmH2O
same,"HR, heart rate",[1]; [6],70 ± 5 beats/min
same,"MAP, mean arterial pressure",[1]; [6],97 ± 4 mmHg
same,"MPAP, mean pulmonary arterial pressure",[1]; [6],14 ± 0 mmHg
same,"PCWP, pulmonary capillary wedge pressure",[1]; [6],3.5 ± 0.6 cm H2O
same,"SVR, systemic vascular resistance",[1]; [6],3347 ± 260 dyn · s^1 · cm^−5
same,PVR during hypoxia,[1]; po 5 mg/kg 12 and 1 hr before,did not change
same,MPAP during hypoxia,"[1]; po 5 mg/kg 12 and 1 hr before, after 2 hrs of hypoxia",increased slightly
same,"CO, cardiac output",[1]; [7],2.8 ± 0.2 L/min
same,"CVP, central venous pressure",[1]; [7],1.5 ± 0.2 cmH2O
same,"HR, heart rate",[1]; [7],101 ± 9 beats/min
same,"MAP, mean arterial pressure",[1]; [7],110 ± 5 mmHg
same,"MPAP, mean pulmonary arterial pressure",[1]; [7],17 ± 1 mmHg
same,"PCWP, pulmonary capillary wedge pressure",[1]; [7],3.3 ± 0.3 cm H2O
same,"SVR, systemic vascular resistance",[1]; [7],3238 ± 326 dyn · s^1 · cm^−5
same,"CO, cardiac output",[1]; [8],2.7 ± 0.3 L/min
same,"CVP, central venous pressure",[1]; [8],1.3 ± 0.2 cmH2O
same,"HR, heart rate",[1]; [8],103 ± 7 beats/min
same,"MAP, mean arterial pressure",[1]; [8],108 ± 7 mmHg
same,"MPAP, mean pulmonary arterial pressure",[1]; [8],17 ± 2 mmHg
same,"PCWP, pulmonary capillary wedge pressure",[1]; [8],3.6 ± 0.4 cm H2O
same,"SVR, systemic vascular resistance",[1]; [8],3270 ± 380 dyn · s^1 · cm^−5
same,"CO, cardiac output",[1]; [9],2.5 ± 0.2 L/min
same,"CVP, central venous pressure",[1]; [9],2.0 ± 0.3 cmH2O
same,"HR, heart rate",[1]; [9],78 ± 5 beats/min
same,"MAP, mean arterial pressure",[1]; [9],99 ± 1 mmHg
same,"MPAP, mean pulmonary arterial pressure",[1]; [9],12 ± 1 mmHg
same,"PCWP, pulmonary capillary wedge pressure",[1]; [9],3.5 ± 0.3 cm H2O
same,"SVR, systemic vascular resistance",[1]; [9],3301 ± 320 dyn · s^1 · cm^−5
same,"HCO3a, arterial actual bicarbonate concentration",[2],16.9 ± 0.5 mM
same,effect on HPV in conscious dogs,[3],totally abolished
"NS(=O)(=O)c1nnc(NS(=O)(=O)c2ccccc2)s1 [BZ, benzolamide]",MPAP and PVR during hypoxia (words),[1]; listed as Benzolamide,did not inhibit
same,MPAP and PVR during hypoxia (words),[1]; listed as benzolamide,increased
same,"CO, cardiac output",[1]; [4],2.6 ± 0.2 L/min
same,"CVP, central venous pressure",[1]; [4],1.5 ± 0.2 cmH2O
same,"HR, heart rate",[1]; [4],94 ± 10 beats/min
same,"MAP, mean arterial pressure",[1]; [4],109 ± 6 mmHg
same,"MPAP, mean pulmonary arterial pressure",[1]; [4],18 ± 1 mmHg
same,"PCWP, pulmonary capillary wedge pressure",[1]; [4],3.2 ± 0.4 cm H2O
same,"SVR, systemic vascular resistance",[1]; [4],3272 ± 113 dyn · s^1 · cm^−5
same,"CO, cardiac output",[1]; [5],2.7 ± 0.2 L/min
same,"CVP, central venous pressure",[1]; [5],1.2 ± 0.2 cmH2O
same,"HR, heart rate",[1]; [5],90 ± 8 beats/min
same,"MAP, mean arterial pressure",[1]; [5],109 ± 9 mmHg
same,"MPAP, mean pulmonary arterial pressure",[1]; [5],19 ± 1 mmHg
same,"PCWP, pulmonary capillary wedge pressure",[1]; [5],3.8 ± 0.3 cm H2O
same,"SVR, systemic vascular resistance",[1]; [5],3227 ± 83 dyn · s^1 · cm^−5
same,"CO, cardiac output",[1]; [6],2.7 ± 0.2 L/min
same,"CVP, central venous pressure",[1]; [6],1.8 ± 0.3 cmH2O
same,"HR, heart rate",[1]; [6],73 ± 6 beats/min
same,"MAP, mean arterial pressure",[1]; [6],102 ± 5 mmHg
same,"MPAP, mean pulmonary arterial pressure",[1]; [6],12 ± 1 mmHg
same,"PCWP, pulmonary capillary wedge pressure",[1]; [6],3.2 ± 0.2 cm H2O
same,"SVR, systemic vascular resistance",[1]; [6],3101 ± 376 dyn · s^1 · cm^−5
"CCOc1ccc2nc(S(N)(=O)=O)sc2c1 [EZ, ethoxzolamide]",MPAP and PVR during hypoxia (words),[1],increased; also recorded: did not prevent
same,"CO, cardiac output",[1]; [4],2.9 ± 0.2 L/min
same,"CVP, central venous pressure",[1]; [4],2.5 ± 0.2 cmH2O
same,"HR, heart rate",[1]; [4],104 ± 6 beats/min
same,"MAP, mean arterial pressure",[1]; [4],104 ± 7 mmHg
same,"MPAP, mean pulmonary arterial pressure",[1]; [4],17 ± 1 mmHg
same,"PCWP, pulmonary capillary wedge pressure",[1]; [4],4.0 ± 0.5 cm H2O
same,"SVR, systemic vascular resistance",[1]; [4],2745 ± 154 dyn · s^1 · cm^−5
same,"CO, cardiac output",[1]; [5],2.9 ± 0.3 L/min
same,"CVP, central venous pressure",[1]; [5],2.5 ± 0.2 cmH2O
same,"HR, heart rate",[1]; [5],106 ± 4 beats/min
same,"MAP, mean arterial pressure",[1]; [5],101 ± 1 mmHg
same,"MPAP, mean pulmonary arterial pressure",[1]; [5],16 ± 1 mmHg
same,"PCWP, pulmonary capillary wedge pressure",[1]; [5],3.5 ± 0.3 cm H2O
same,"SVR, systemic vascular resistance",[1]; [5],3270 ± 380 dyn · s^1 · cm^−5
same,"CO, cardiac output",[1]; [6],2.8 ± 0.2 L/min
same,"CVP, central venous pressure",[1]; [6],2.3 ± 0.2 cmH2O
same,"HR, heart rate",[1]; [6],77 ± 4 beats/min
same,"MAP, mean arterial pressure",[1]; [6],96 ± 2 mmHg
same,"MPAP, mean pulmonary arterial pressure",[1]; [6],11 ± 1 mmHg
same,"PCWP, pulmonary capillary wedge pressure",[1]; [6],3.8 ± 0.2 cm H2O
same,"PVR, pulmonary vascular resistance",[1]; [6],221 ± 21 dyn · s^−1 · cm^−5
same,"SVR, systemic vascular resistance",[1]; [6],2784 ± 200 dyn · s^1 · cm^−5
